Source: the supplement of paper PMC4862054

Columns and labels:
[1] = tested on: DU-4475; test: normalised viability (% of control), CellTiter-Blue; higher = more viable cells (100 = DMSO, 0 = benzethonium chloride kill control); conditions: 1 nM; incubation time: 72 h
Protocol: (§1)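 DSRT, CellTiter-Blue viability, 72 h incubation. Signal is normalised to DMSO and benzethonium chloride controls. Value is the normalised response at dose 1.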

[2] = tested on: MDA-MB-231; test: as above; conditions: 1 nM; incubation time: 72 h
Protocol: as §1

[3] = tested on: HCC1937; test: as above; conditions: 1 nM; incubation time: 72 h
Protocol: as §1

[4] = tested on: CAL-51; test: as above; conditions: 1 nM; incubation time: 72 h
Protocol: as §1

[5] = tested on: BT-549; test: as above; conditions: 1 nM; incubation time: 72 h
Protocol: as §1

[6] = tested on: MDA-MB-436; test: as above; conditions: 1 nM; incubation time: 72 h
Protocol: as §1

[7] = tested on: MDA-MB-453; test: as above; conditions: 1 nM; incubation time: 72 h
Protocol: as §1

[8] = tested on: CAL-85-1; test: as above; conditions: 1 nM; incubation time: 72 h
Protocol: as §1

[9] = tested on: BT-474; test: as above; conditions: 1 nM; incubation time: 72 h
Protocol: as §1

[10] = tested on: Hs578T; test: as above; conditions: 1 nM; incubation time: 72 h
Protocol: as §1

[11] = tested on: HCC1143; test: as above; conditions: 1 nM; incubation time: 72 h
Protocol: as §1

[12] = tested on: CAL-120; test: as above; conditions: 1 nM; incubation time: 72 h
Protocol: as §1

[13] = tested on: HCC1599; test: as above; conditions: 1 nM; incubation time: 72 h
Protocol: as §1

[14] = tested on: MFM-223; test: as above; conditions: 1 nM; incubation time: 72 h
Protocol: as §1

[15] = tested on: SK-BR-3; test: as above; conditions: 1 nM; incubation time: 72 h
Protocol: as §1

[16] = tested on: MDA-MB-468; test: as above; conditions: 1 nM; incubation time: 72 h
Protocol: as §1

[17] = tested on: HDQ-P1; test: as above; conditions: 1 nM; incubation time: 72 h
Protocol: as §1

[18] = tested on: CAL-148; test: as above; conditions: 1 nM; incubation time: 72 h
Protocol: as §1

[19] = tested on: DU-4475; test: normalised viability (% of control), CellTiter-Blue; higher = more viable cells (about 100 = DMSO control); conditions: 10 nM; incubation time: 72 h
Protocol: (§2)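 DSRT, CellTiter-Blue viability, 72 h incubation. Signal is normalised to DMSO and benzethonium chloride controls. Value is the normalised response at dose 3.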

[20] = tested on: CAL-51; test: as above; conditions: 10 nM; incubation time: 72 h
Protocol: as §2

[21] = tested on: MDA-MB-436; test: as above; conditions: 100 nM; incubation time: 72 h
Protocol: as §2

[22] = tested on: MDA-MB-453; test: as above; conditions: 10 nM; incubation time: 72 h
Protocol: as §2

[23] = tested on: BT-474; test: as above; conditions: 100 nM; incubation time: 72 h
Protocol: as §2

[24] = tested on: Hs578T; test: as above; conditions: 100 nM; incubation time: 72 h
Protocol: as §2

[25] = tested on: HCC1143; test: as above; conditions: 100 nM; incubation time: 72 h
Protocol: as §2

[26] = tested on: CAL-120; test: as above; conditions: 100 nM; incubation time: 72 h
Protocol: as §2

[27] = tested on: HCC1599; test: as above; conditions: 100 nM; incubation time: 72 h
Protocol: as §2

[28] = tested on: MFM-223; test: as above; conditions: 100 nM; incubation time: 72 h
Protocol: as §2

[29] = tested on: CAL-85-1; test: normalised viability (% of control), CellTiter-Blue; higher = more viable cells (about 100 = DMSO control); conditions: 1000 nM; incubation time: 72 h
In short: (§3)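 After 72 h on compound-loaded 384-well plates, breast cancer cell lines received 2.5 µl CellTiter-Blue reagent for 2 h at 37 °C. Fluorescence at 560/590 nm was scaled per plate so that vehicle was 100 and a positive kill control was 0. The value stands for normalised viability at a single listed concentration of the series.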

[30] = tested on: CAL-148; test: as above; conditions: 1000 nM; incubation time: 72 h
In short: as §3

Row | Compound | normalised viability [1] [%] | normalised viability [2] [%] | normalised viability [3] [%] | normalised viability [4] [%] | normalised viability [5] [%] | normalised viability [6] [%] | normalised viability [7] [%] | normalised viability [8] [%] | normalised viability [9] [%] | normalised viability [10] [%] | normalised viability [11] [%] | normalised viability [12] [%] | normalised viability [13] [%] | normalised viability [14] [%] | normalised viability [15] [%] | normalised viability [16] [%] | normalised viability [17] [%] | normalised viability [18] [%] | normalised viability [19] [%] | normalised viability [20] [%] | normalised viability [21] [%] | normalised viability [22] [%] | normalised viability [23] [%] | normalised viability [24] [%] | normalised viability [25] [%] | normalised viability [26] [%] | normalised viability [27] [%] | normalised viability [28] [%] | normalised viability [29] [%] | normalised viability [30] [%]
1 | CC[C@H](Nc1ncnc2[nH]cnc12)c1nc2cccc(F)c2c(=O)n1-c1ccccc1 [CAL-101] | 106 | 82.3 | 121 | 88.6 | 97.9 | 116 | 89.8 | 90 | 100 | 118 | 94 | 104 | 82.4 | 91.1 | 97.4 | 100 | 89.5 | 91.3 | 98.6 | 84.7 | 104 | 97.4 | 112 | 89.6 | 102 | 97.2 | 73.6 | 88.3 | 80.5 | 79.9
2 | C=CC(=O)Nc1cc2c(Nc3ccc(F)c(Cl)c3)ncnc2cc1OCCCN1CCOCC1 [Canertinib] | 98.5 | 98.5 | 90.6 | 109 | 110 | 97.5 | 103 | 80 | 97.5 | 103 | 90.2 | 84.4 | 94.8 | 92.8 | 86.2 | 110 | 88.3 | 99.5 | 108 | 109 | 102 | 95 | 55.7 | 79.4 | 90.1 | 81.5 | 91.8 | 98.3 | 49.5 | 68.6
3 | O=C(O)C1(C(=O)O)CCC1.[NH2-].[NH2-].[Pt+2] [Carboplatin] | 104 | 105 | 80.9 | 99.2 | 95.2 | 102 | 98.7 | 90.2 | 109 | 125 | 90.7 | 84.1 | 91.3 | 96.6 | 105 | 100 | 109 | 96.9 | 98.9 | 100 | 93.3 | 103 | 116 | 96 | 86.4 | 88 | 92.8 | 88 | 81.5 | 103
